target: T1, human TRPA1 (Homo sapiens, UniProt O75762); test: Measurement of TRPA1 antagonist activity (intracellular calcium increase, allylisothiocyanate stimulation, 293T cells transfected with human TRPA1 expression plasmid); format: cell-based; settings: Comparative Examples (Table 8-2); 293T cells expressing human TRPA1, allylisothiocyanate stimulation, FLIPR Calcium4, test substance added 10 min before AITC; read-out: hTRPA1 IC50
T1 construct: full-length human TRPA1 gene was amplified; expressed in transfected cells; host or cells: Human embryonic kidney-derived 293T cells, transient transfection with pcDNA3.1/zeo(+) human TRPA1 expression plasmid
Method: Experimental Example 1: Measurement of TRPA1 antagonist Activity
Human TRPA1 Expression Plasmid
Using cDNA encoding human TRPA1 (GenBank accession No. NM_007332) (manufactured by Kazusa DNA Research Institute, item No.: FHC07217) as a template, primer 1 (SEQ ID NO: 1) and primer 2 (SEQ ID NO: 2), PCR by PfuUltra High-Fidelity DNA Polymerase (Stratagene) was performed, and full-length human TRPA1 gene was amplified.
A recognition site (underlined) of restriction enzyme HindIII was added to the 5′ end of human TRPA1 gene, and XbaI site (underlined) was added to the 3′ end of human TRPA1 gene, and GTT of the template sequence was changed to termination codon TAG (bold). The obtained double stranded DNA was enzyme-digested with HindIII and XbaI, and introduced into a multicloning site of expression plasmid pcDNA3.1/zeo(+) (manufactured by Invitrogen) to give a human TRPA1 expression plasmid.
Human embryonic kidney-derived 293T cells were cultured in Dulbecco's Modified Eagle Medium containing 10% fetal bovine serum, 10 unit penicillin, and 10 μg streptomycin. One day before assay, 3×10^6 of 293T cells were plated on a petri dish having a diameter of 10 cm, and cultured in a CO2 incubator for 24 hr. OPTI-MEM I Reduced Serum Media (Invitrogen). (600 μL), Mirus TransIT-293 (Mirus Bio) (18 μL), and human TRPA1 expression plasmid (6 μg) were mixed, the total amount of the mixture was added to the cells on the petri dish to allow for gene transfer. The cells were recovered about for 8 hr later, plated on a poly-D-lysine coated 384 well black/clear bottom plate at 12,000 cells/well, and cultured overnight.
Measurement of Intracellular Calcium Increase
The medium was removed from the 384 well plate, calcium indicator (Molecular Device, trade name: FLIPR Calcium4 Assay Kit) dissolved in HBSS (Thermo Fisher Scientific) (pH 7.2) containing 20 mM HEPES was added (38 μL/well), and the cells were stained in a CO2 incubator for 1 hr. The 384 well plate was stood at room temperature for not less than 15 min, set on FDSS7000 (Hamamatsu Photonics K.K.), and a test substance solution was added at 10 μL/well. After 10 min, allylisothiocyanate solution (12 μL/well) was added, the relative fluorescence intensity was measured for 5 min after addition of the allylisothiocyanate solution.
Preparation of Test Substance Solution and Allylisothiocyanate Solution
A test substance solution was prepared to have a composition of HBSS (Thermo Fisher Scientific) (pH 7.2) containing 0.48% dimethyl sulfoxide, a test substance at 4.8-fold concentration of the evaluation concentration, 0.1% bovine serum albumin and 20 mM HEPES. An allylisothiocyanate solution was prepared to have a composition of HBSS (Thermo Fisher Scientific) (pH 7.2) containing 0.1% dimethyl sulfoxide, 100 μM allylisothiocyanate, 0.1% bovine serum albumin and 20 mM HEPES.
Calculation of Antagonist Activity
The activity rate of a test substance at each concentration was calculated, wherein the relative fluorescence intensity change of a well free of a test substance and containing allylisothiocyanate is 100% activity rate, and the relative fluorescence intensity change of a well free of a test substance and allylisothiocyanate is 0% activity rate. The inhibitory rate of a test substance at each concentration was calculated by subtracting the activity rate of the test substance from 100% activity rate, and the concentration of a test substance showing 50% inhibitory rate was calculated as IC50 from the sigmoid approximate curve by XLFit (idbs).

T1 sequence (O75762 whole entry): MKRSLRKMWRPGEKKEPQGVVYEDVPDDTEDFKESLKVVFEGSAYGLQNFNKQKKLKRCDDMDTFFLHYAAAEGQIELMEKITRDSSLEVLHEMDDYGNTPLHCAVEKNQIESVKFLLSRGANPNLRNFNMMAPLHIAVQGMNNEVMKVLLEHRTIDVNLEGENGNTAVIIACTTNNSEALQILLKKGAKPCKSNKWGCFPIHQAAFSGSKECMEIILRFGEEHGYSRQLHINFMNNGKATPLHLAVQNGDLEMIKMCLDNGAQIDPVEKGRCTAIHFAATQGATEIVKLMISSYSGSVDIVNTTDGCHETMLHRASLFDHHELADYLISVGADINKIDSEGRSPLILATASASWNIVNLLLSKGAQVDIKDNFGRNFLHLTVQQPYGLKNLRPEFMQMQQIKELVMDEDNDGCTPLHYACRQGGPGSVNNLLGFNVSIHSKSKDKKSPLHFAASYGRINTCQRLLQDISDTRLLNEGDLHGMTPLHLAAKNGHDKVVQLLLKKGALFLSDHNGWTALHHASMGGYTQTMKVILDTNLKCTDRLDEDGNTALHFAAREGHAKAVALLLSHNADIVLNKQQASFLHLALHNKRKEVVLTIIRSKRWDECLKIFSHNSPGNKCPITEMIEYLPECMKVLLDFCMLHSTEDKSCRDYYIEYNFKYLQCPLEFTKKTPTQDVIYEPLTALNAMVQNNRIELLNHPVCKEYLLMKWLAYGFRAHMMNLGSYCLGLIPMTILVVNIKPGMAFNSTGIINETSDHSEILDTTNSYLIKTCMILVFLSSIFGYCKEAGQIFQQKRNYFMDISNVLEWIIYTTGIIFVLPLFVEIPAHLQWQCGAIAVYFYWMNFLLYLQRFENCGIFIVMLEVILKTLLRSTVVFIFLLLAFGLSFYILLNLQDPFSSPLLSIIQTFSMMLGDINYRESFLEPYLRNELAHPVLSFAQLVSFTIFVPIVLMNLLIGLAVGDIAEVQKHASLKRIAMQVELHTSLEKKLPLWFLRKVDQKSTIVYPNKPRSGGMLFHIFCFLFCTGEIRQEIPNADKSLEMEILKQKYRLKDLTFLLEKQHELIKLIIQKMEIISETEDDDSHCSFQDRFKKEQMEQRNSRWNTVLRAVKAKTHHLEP

IC50	Structure (SMILES)
0.18 µM	CC(C)N(C1(C(=O)NCc2cc(-c3ccc(C(F)(F)F)nc3)ncn2)CC1)S(=O)(=O)c1ccc(F)cc1 [Comparative Example 1, 1-[(4-fluorophenyl)sulfonyl-isopropyl-amino]-N-[[6-[6-(trifluoromethyl)-3-pyridyl]pyrimidin-4-yl]methyl]cyclopropanecarboxamide, reference compound]
> 1 µM	O=C(NCc1cc(-c2ccc(C(F)(F)F)cc2)nc(N2CCCC2)c1)C1(NS(=O)(=O)c2ccc(F)cc2)CC1 [Comparative Example 2, 1-[(4-fluorophenyl)sulfonylamino]-N-[[2-pyrrolidin-1-yl-6-[4-(trifluoromethyl)phenyl]-4-pyridyl]methyl]cyclopropanecarboxamide, reference compound]
> 1 µM	O=C(NCc1cc(-c2ccc(C(F)(F)F)cc2)nc(N2CCCC2)c1)C1(NS(=O)(=O)c2ccco2)CC1 [Comparative Example 3, 1-(2-furylsulfonylamino)-N-[[2-pyrrolidin-1-yl-6-[4-(trifluoromethyl)phenyl]-4-pyridyl]methyl]cyclopropanecarboxamide, reference compound]
> 1 µM	O=C(NCc1cc(-c2ccc(C(F)(F)F)cc2)nc(N2CCCC2)c1)C1(NS(=O)(=O)c2ccc(Cl)s2)CC1 [Comparative Example 4, 1-[(5-chloro-2-thienyl)sulfonylamino]-N-[[2-pyrrolidin-1-yl-6-[4-(trifluoromethyl)phenyl]-4-pyridyl]methyl]cyclopropanecarboxamide, reference compound]

same assay, conditions: Examples (Table 8-1); 293T cells expressing human TRPA1, allylisothiocyanate stimulation, FLIPR Calcium4, test substance added 10 min before AITC; read-out: hTRPA1 IC50

IC50	Structure (SMILES)
0.033 µM	O=C(NCc1cc(-c2ccc(C(F)(F)F)cc2)ncn1)C1(NS(=O)(=O)c2cc3cc(F)ccc3o2)CC1 [Example 1, 1-[(5-fluorobenzofuran-2-yl)sulfonylamino]-N-[[6-[4-(trifluoromethyl)phenyl]pyrimidin-4-yl]methyl]cyclopropanecarboxamide]
0.12 µM	O=C(NCc1ccnc(-c2cnc(C(F)(F)F)nc2)c1)C1(NS(=O)(=O)c2cc3cc(F)ccc3o2)CC1 [Example 2, 1-[(5-fluorobenzofuran-2-yl)sulfonylamino]-N-[[2-[2-(trifluoromethyl)pyrimidin-5-yl]-4-pyridyl]methyl]cyclopropane-carboxamide]
0.072 µM	O=C(NCc1ccnc(-c2ccc(C(F)(F)F)cc2O)c1)C1(NS(=O)(=O)c2cc3cc(F)ccc3o2)CC1 [Example 3, 1-[(5-fluorobenzofuran-2-yl)sulfonylamino]-N-[[2-[2-hydroxy-4-(trifluoromethyl)phenyl]-4-pyridyl]methyl]cyclopropane-carboxamide]
0.022 µM	O=C(NCc1cc(-c2ccc(C(F)(F)F)cn2)ccn1)C1(NS(=O)(=O)c2cc3cc(F)ccc3o2)CC1 [Example 4, 1-[(5-fluorobenzofuran-2-yl)sulfonylamino]-N-[[4-[5-(trifluoromethyl)-2-pyridyl]-2-pyridyl]methyl]cyclopropane-carboxamide]
0.26 µM	O=C(NCc1cc(-c2cnc(C(F)(F)F)nc2)ccn1)C1(NS(=O)(=O)c2cc3cc(F)ccc3o2)CC1 [Example 5, 1-[(5-fluorobenzofuran-2-yl)sulfonylamino]-N-[[4-[2-(trifluoromethyl)pyrimidin-5-yl]-2-pyridyl]methyl]cyclopropane-carboxamide]
0.23 µM	O=C(NCc1cc(-c2ncc(C(F)(F)F)cn2)ccn1)C1(NS(=O)(=O)c2cc3cc(F)ccc3o2)CC1 [Example 6, 1-[(5-fluorobenzofuran-2-yl)sulfonylamino]-N-[[4-[5-(trifluoromethyl)pyrimidin-2-yl]-2-pyridyl]methyl]cyclopropane-carboxamide]
0.17 µM	O=C(NCc1cc(-c2cnc(C(F)(F)F)cn2)ccn1)C1(NS(=O)(=O)c2cc3cc(F)ccc3o2)CC1 [Example 7, 1-[(5-fluorobenzofuran-2-yl)sulfonylamino]-N-[[4-[5-(trifluoromethyl)pyrazin-2-yl]-2-pyridyl]methyl]cyclopropane-carboxamide]
0.074 µM	O=C(NCc1cc(-c2ccc(C(F)(F)F)nn2)ccn1)C1(NS(=O)(=O)c2cc3cc(F)ccc3o2)CC1 [Example 8, 1-[(5-fluorobenzofuran-2-yl)sulfonylamino]-N-[[4-[6-(trifluoromethyl)pyridazin-3-yl]-2-pyridyl]methyl]cyclopropane-carboxamide]
0.17 µM	O=C(NCc1cncc(-c2ccc(C(F)(F)F)nc2)c1)C1(NS(=O)(=O)c2cc3cc(F)ccc3o2)CC1 [Example 9, 1-[(5-fluorobenzofuran-2-yl)sulfonylamino]-N-[[5-[6-(trifluoromethyl)-3-pyridyl]-3-pyridyl]methyl]cyclopropane-carboxamide]
0.11 µM	O=C(NCc1cncc(-c2ccc(C(F)(F)F)cn2)c1)C1(NS(=O)(=O)c2cc3cc(F)ccc3o2)CC1 [Example 10, 1-[(5-fluorobenzofuran-2-yl)sulfonylamino]-N-[[5-[5-(trifluoromethyl)-2-pyridyl]-3-pyridyl]methyl]cyclopropane-carboxamide]
0.04 µM	O=C(NCc1cc(-c2ccc(OC(F)(F)F)cc2)ncn1)C1(NS(=O)(=O)c2cc3cc(F)ccc3o2)CC1 [Example 11, 1-[(5-fluorobenzofuran-2-yl)sulfonylamino]-N-[[6-[4-(trifluoromethoxy)phenyl]pyrimidin-4-yl]methyl]cyclopropanecarboxamide]
0.03 µM	O=C(NCc1cc(-c2ccc(C(F)(F)F)nc2)ncn1)C1(NS(=O)(=O)c2cc3cc(F)ccc3o2)CC1 [Example 12, 1-[(5-fluorobenzofuran-2-yl)sulfonylamino]-N-[[6-[6-(trifluoromethyl)-3-pyridyl]pyrimidin-4-yl]methyl]cyclopropanecarboxamide]
0.11 µM	O=C(NCc1cc(-c2ccc(C(F)(F)F)cn2)ncn1)C1(NS(=O)(=O)c2cc3cc(F)ccc3o2)CC1 [Example 13, 1-[(5-fluorobenzofuran-2-yl)sulfonylamino]-N-[[6-[5-(trifluoromethyl)-2-pyridyl]pyrimidin-4-yl]methyl]cyclopropanecarboxamide]
0.047 µM	O=C(NCc1cc(-c2cnc(C(F)(F)F)nc2)ncn1)C1(NS(=O)(=O)c2cc3cc(F)ccc3o2)CC1 [Example 14, 1-[(5-fluorobenzofuran-2-yl)sulfonylamino]-N-[[6-[2-(trifluoromethyl)pyrimidin-5-yl]pyrimidin-4-yl]methyl]cyclopropanecarboxamide]
0.31 µM	O=C(NCc1cnnc(-c2ccc(C(F)(F)F)cc2)c1)C1(NS(=O)(=O)c2cc3cc(F)ccc3o2)CC1 [Example 15, 1-[(5-fluorobenzofuran-2-yl)sulfonylamino]-N-[[6-[4-(trifluoromethyl)phenyl]pyridazin-4-yl]methyl]cyclopropanecarboxamide]
0.99 µM	O=C(NCc1cnnc(-c2ccc(C(F)(F)F)nc2)c1)C1(NS(=O)(=O)c2cc3cc(F)ccc3o2)CC1 [Example 16, 1-[(5-fluorobenzofuran-2-yl)sulfonylamino]-N-[[6-[6-(trifluoromethyl)-3-pyridyl]pyridazin-4-yl]methyl]cyclopropanecarboxamide]
0.24 µM	O=C(NCc1cc(-c2ccc(C(F)(F)F)cn2)cnn1)C1(NS(=O)(=O)c2cc3cc(F)ccc3o2)CC1 [Example 17, 1-[(5-fluorobenzofuran-2-yl)sulfonylamino]-N-[[5-[5-(trifluoromethyl)-2-pyridyl]pyridazin-3-yl]methyl]cyclopropanecarboxamide]

From patent US20180162844A1, “CYCLOPROPANE DERIVATIVE AND DRUG CONTAINING SAME” (EA PHARMA CO., LTD., priority 2015, published 2018)
